Data: PubChem BioAssay AID330 (DTP/NCI, 2004)
Values joined by “and” are separate entries in the source; they are usually repeats but may differ in a detail not shown here. Equal entries are not always repeated. Inconclusive results and toxic doses are left out.

Test system: P388 leukemia ip, CD2F1 mice, survival T/C
Assay: NCI In Vivo Anticancer Drug Screen. Data for tumor model P388 Leukemia (intraperitoneal) in CD2F1 (CDF1) mice
Conditions: endpoint: median survival time, higher = longer survival
Procedure, shortened: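 Mice carrying the transplanted tumor received test compound or vehicle. Survival was recorded in each group, and the value is the treated-group measurement divided by that of the vehicle-treated control group.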

[1] = dose: 50.0 mg/kg/injection, schedule: Q01DX005 (ip), vehicle: saline with Tween-80
[2] = dose: 100.0 mg/kg/injection, schedule: Q01DX005 (ip), vehicle: saline with Tween-80
[3] = dose: 200.0 mg/kg/injection, schedule: Q01DX005 (ip), vehicle: saline with Tween-80
[4] = dose: 50.0 mg/kg/injection, schedule: Q01DX009 (ip), vehicle: saline
[5] = dose: 100.0 mg/kg/injection, schedule: Q01DX009 (ip), vehicle: saline
[6] = dose: 50.0 mg/kg/injection, schedule: Q01DX005 (ip), vehicle: Klucel (hydroxypropylcellulose) (HPC)
[7] = dose: 100.0 mg/kg/injection, schedule: Q01DX005 (ip), vehicle: Klucel (hydroxypropylcellulose) (HPC)
[8] = dose: 200.0 mg/kg/injection, schedule: Q01DX005 (ip), vehicle: Klucel (hydroxypropylcellulose) (HPC)
[9] = dose: 12.5 mg/kg/injection, schedule: Q01DX009 (ip), vehicle: Klucel (hydroxypropylcellulose) (HPC)
[10] = dose: 25.0 mg/kg/injection, schedule: Q01DX009 (ip), vehicle: Klucel (hydroxypropylcellulose) (HPC)
[11] = dose: 50.0 mg/kg/injection, schedule: Q01DX009 (ip), vehicle: Klucel (hydroxypropylcellulose) (HPC)
[12] = dose: 100.0 mg/kg/injection, schedule: Q01DX009 (ip), vehicle: Klucel (hydroxypropylcellulose) (HPC)
[13] = dose: 50.0 mg/kg/injection, schedule: Q01DX009 (ip), vehicle: saline with Tween-80
[14] = dose: 100.0 mg/kg/injection, schedule: Q01DX009 (ip), vehicle: saline with Tween-80
[15] = dose: 60.0 mg/kg/injection, schedule: Q01DX005 (ip), vehicle: saline with Tween-80
[16] = dose: 120.0 mg/kg/injection, schedule: Q01DX005 (ip), vehicle: saline with Tween-80
[17] = dose: 240.0 mg/kg/injection, schedule: Q01DX005 (ip), vehicle: saline with Tween-80
[18] = dose: 60.0 mg/kg/injection, schedule: Q01DX005 (ip), vehicle: Klucel (hydroxypropylcellulose) (HPC)
[19] = dose: 120.0 mg/kg/injection, schedule: Q01DX005 (ip), vehicle: Klucel (hydroxypropylcellulose) (HPC)
[20] = dose: 100.0 mg/kg/injection, schedule: Q04DX003 (ip), vehicle: saline
[21] = dose: 200.0 mg/kg/injection, schedule: Q04DX003 (ip), vehicle: saline

With `COc1ccc(C(=NCCO)c2ccc(O)cc2)c(OC)c1` the T/C [1] was 104 % of control, the T/C [2] was 92 % of control and the T/C [3] was 91 % of control.
With `O=C(O)C1CSC(c2ccc(Cl)cc2)N1` (configuration not stated) the T/C (dose: 50.0 mg/kg/injection, schedule: Q01DX009 (ip), vehicle: suspension in saline) was 95 % of control, the T/C (dose: 100.0 mg/kg/injection, schedule: Q01DX009 (ip), vehicle: suspension in saline) was 95 % of control and the T/C (dose: 200.0 mg/kg/injection, schedule: Q01DX009 (ip), vehicle: suspension in saline) was 95 % of control and 96 % of control.
`CC(=O)N(C)N=Nc1ccc(C)cc1` was tested, and the T/C [4] was 100 % of control and 121 % of control and 123 % of control and the T/C [5] was 100 % of control and 118 % of control and 121 % of control.
In the case of `CCCCN(CCCC)C(=O)C(C)O` (configuration not stated), the T/C (dose: 25.0 mg/kg/injection, schedule: Q01DX005 (ip), vehicle: Klucel (hydroxypropylcellulose) (HPC)) is reported as 108 % of control, the T/C [6] is reported as 105 % of control and the T/C [7] is reported as 110 % of control. For the same compound, the T/C [8] was 112 % of control.
For `O=S1(=O)CC(Cl)(Br)C1` (tested in a mixture with another compound), the T/C [9] was 96 % of control, the T/C [10] was 93 % of control and the T/C [11] was 100 % of control. The T/C [12] was 96 % of control.
For `O=C(NCc1ccccc1)c1ccc([N+](=O)[O-])cc1`, the T/C [13] was 87 % of control, the T/C [14] was 95 % of control and the T/C (dose: 200.0 mg/kg/injection, schedule: Q01DX009 (ip), vehicle: saline with Tween-80) was 95 % of control. The T/C (dose: 400.0 mg/kg/injection, schedule: Q01DX009 (ip), vehicle: saline with Tween-80) was 91 % of control.
In the case of `Cc1ccc(NC(=O)CO)cc1Cl`, the T/C [4] is reported as 103 % of control, the T/C [5] is reported as 103 % of control and the T/C (dose: 200.0 mg/kg/injection, schedule: Q01DX009 (ip), vehicle: saline) is reported as 116 % of control.
`CC1(C)C/C(=C\c2ccc([N+](=O)[O-])cc2)C(=O)c2ccccc21` was tested, and the T/C [10] was 99 % of control, the T/C [11] was 100 % of control and the T/C [12] was 99 % of control. The T/C (dose: 200.0 mg/kg/injection, schedule: Q01DX009 (ip), vehicle: Klucel (hydroxypropylcellulose) (HPC)) was 98 % of control and the T/C (dose: 400.0 mg/kg/injection, schedule: Q01DX009 (ip), vehicle: Klucel (hydroxypropylcellulose) (HPC)) was 88 % of control.
In the case of `N#Cc1cc(Cl)ccc1[N+](=O)[O-]`, the T/C [13] is reported as 102 % of control and the T/C [14] is reported as 103 % of control.
With `COC(=O)c1noc2c1CSC1=C2CS(=O)(=O)c2ccccc21` the T/C [15] was 104 % of control, the T/C [16] was 104 % of control and the T/C [17] was 98 % of control.
`COCCCN=C(N)c1ccc(NC(=O)c2ccc(C(=O)Nc3ccc(C(N)=NCCCOC)cc3)cc2)cc1` was tested, and the T/C (dose: 1.65 mg/kg/injection, schedule: Q01DX009 (ip), vehicle: saline with Tween-80) was 154 % of control, the T/C (dose: 2.5 mg/kg/injection, schedule: Q01DX009 (ip), vehicle: saline with Tween-80) was 154 % of control and the T/C (dose: 3.75 mg/kg/injection, schedule: Q01DX009 (ip), vehicle: saline with Tween-80) was 195 % of control. For the same compound, the T/C (dose: 5.63 mg/kg/injection, schedule: Q01DX009 (ip), vehicle: saline with Tween-80) was 227 % of control, the T/C (dose: 6.6 mg/kg/injection, schedule: Q04DX003 (ip), vehicle: saline with Tween-80) was 155 % of control and the T/C (dose: 10.0 mg/kg/injection, schedule: Q04DX003 (ip), vehicle: saline with Tween-80) was 150 % of control. For the same compound, the T/C (dose: 12.5 mg/kg/injection, schedule: Q04DX003 (ip), vehicle: saline with Tween-80) was 177 % of control, the T/C (dose: 15.0 mg/kg/injection, schedule: Q04DX003 (ip), vehicle: saline with Tween-80) was 200 % of control and the T/C (dose: 25.0 mg/kg/injection, schedule: Q04DX003 (ip), vehicle: saline with Tween-80) was 200 % of control. For the same compound, the T/C (dose: 50.0 mg/kg/injection, schedule: Q04DX003 (ip), vehicle: saline with Tween-80) was 90 % of control.
In the case of `OCCn1nc2c(c1-c1ccccn1)CCCc1ccccc1-2`, the T/C (dose: 100.0 mg/kg/injection, schedule: Q04DX002 (ip), vehicle: gum acacia) is reported as 104 % of control, the T/C (dose: 200.0 mg/kg/injection, schedule: Q04DX002 (ip), vehicle: gum acacia) is reported as 97 % of control and the T/C (dose: 400.0 mg/kg/injection, schedule: Q04DX002 (ip), vehicle: gum acacia) is reported as 92 % of control.
For `CC(C)n1nnc2c3ccccc3c3ccccc3c21`, the T/C [15] was 109 % of control, the T/C [16] was 102 % of control and the T/C [17] was 105 % of control.
With `CC(O)C(NC(=O)c1cnc(OCc2ccccc2)nc1N)C(=O)O` (configuration not stated) the T/C (dose: 6.25 mg/kg/injection, schedule: Q01DX009 (ip), vehicle: saline with Tween-80) was 100 % of control, the T/C (dose: 12.5 mg/kg/injection, schedule: Q01DX009 (ip), vehicle: saline with Tween-80) was 100 % of control and the T/C (dose: 25.0 mg/kg/injection, schedule: Q01DX009 (ip), vehicle: saline with Tween-80) was 90 % of control.
In the case of `c1ccc(Nc2ccc(CN3CCOCC3)cc2)cc1`, the T/C [18] is reported as 105 % of control, the T/C [19] is reported as 96 % of control and the T/C (dose: 240.0 mg/kg/injection, schedule: Q01DX005 (ip), vehicle: Klucel (hydroxypropylcellulose) (HPC)) is reported as 88 % of control.
With `O=C(Nc1ccc(N=C=S)cc1Cl)c1cc(Cl)cc(Cl)c1O` the T/C [11] was 119 % of control and the T/C [12] was 122 % of control.
`COc1ccc(C(=O)/C=C/c2ccc(OC)c(OC)c2OCc2ccccc2)c(O)c1` was tested, and the T/C (dose: 100.0 mg/kg/injection, schedule: Q01DX001 (ip), vehicle: Klucel (hydroxypropylcellulose) (HPC)) was 94 % of control and the T/C (dose: 200.0 mg/kg/injection, schedule: Q01DX001 (ip), vehicle: Klucel (hydroxypropylcellulose) (HPC)) was 88 % of control.
With `O=C1CCCC1C(=S)S` (configuration not stated) the T/C [20] was 102 % of control and the T/C [21] was 102 % of control.
In the case of `O=C1C=CC(=O)N1C1CCCCC1`, the T/C (dose: 6.25 mg/kg/injection, schedule: Q01DX009 (ip), vehicle: Klucel (hydroxypropylcellulose) (HPC)) is reported as 97 % of control, the T/C [9] is reported as 100 % of control and the T/C [10] is reported as 97 % of control.
`Nc1nnc2nc(C(C(=O)c3ccccc3Cl)c3nc4nnc(N)n4[nH]c3=O)c(=O)[nH]n12` was tested, and the T/C [15] was 101 % of control, the T/C [16] was 98 % of control and the T/C [17] was 99 % of control.
`O=C1C[C@]2(CC3CO3)C[C@@H](C=CC23OCCO3)O1` (some centres not stated) was tested, and the T/C (dose: 1.5 mg/kg/injection, schedule: Q01DX005 (ip), vehicle: acid diluted with saline) was 99 % of control, the T/C (dose: 3.0 mg/kg/injection, schedule: Q01DX005 (ip), vehicle: acid diluted with saline) was 102 % of control and the T/C (dose: 6.0 mg/kg/injection, schedule: Q01DX005 (ip), vehicle: acid diluted with saline) was 102 % of control. For the same compound, the T/C (dose: 12.0 mg/kg/injection, schedule: Q01DX005 (ip), vehicle: acid diluted with saline) was 107 % of control.
For `COC(=O)C/C(=C/C=C1/C(=O)ON=C1C)c1c(C)[nH]oc1=O`, the T/C [20] was 100 % of control, the T/C [21] was 100 % of control and the T/C (dose: 400.0 mg/kg/injection, schedule: Q04DX003 (ip), vehicle: saline) was 100 % of control.
In the case of `CCCCN=C1NS(=O)(=O)c2ccccc21`, the T/C [1] is reported as 103 % of control, the T/C [2] is reported as 107 % of control and the T/C [3] is reported as 103 % of control.
With `CCCCCC(/C=C/C1C(O[Si](C)(C)C(C)(C)C)CC(N(C)C)C1(C/C=C/CCCC#N)S(=O)(=O)c1ccccc1)O[Si](C)(C)C(C)(C)C` (configuration not stated) the T/C [18] was 86 % of control and the T/C [19] was 86 % of control.
`COC(=O)c1cc(-c2ccc(Cl)c(Cl)c2)[nH]c(=O)c1C#N` was tested, and the T/C [15] was 100 % of control, the T/C [16] was 103 % of control and the T/C [17] was 94 % of control.
In the case of `CSc1ccc(OC(=O)Nc2ccc(Cl)c(Cl)c2)c(C)c1`, the T/C (dose: 50.0 mg/kg/injection, schedule: Q01DX009 (ip), vehicle: saline + alcohol) is reported as 87 % of control, the T/C (dose: 100.0 mg/kg/injection, schedule: Q01DX009 (ip), vehicle: saline + alcohol) is reported as 87 % of control and the T/C (dose: 200.0 mg/kg/injection, schedule: Q01DX009 (ip), vehicle: saline + alcohol) is reported as 95 % of control.
`CC(C)C(NC(=O)OCc1ccccc1)C(=O)N(C(=O)NC1CCCCC1)C1CCCCC1` (configuration not stated) was tested, and the T/C [6] was 100 % of control, the T/C [7] was 95 % of control and the T/C [8] was 98 % of control.
For `Cc1cc(C=C2C(=O)NC(=O)NC2=O)cc(C)c1O`, the T/C (dose: 12.5 mg/kg/injection, schedule: Q01DX005 (ip), vehicle: saline with Tween-80) was 108 % of control, the T/C (dose: 25.0 mg/kg/injection, schedule: Q01DX005 (ip), vehicle: saline with Tween-80) was 103 % of control and the T/C [1] was 105 % of control and 119 % of control. The T/C [2] was 117 % of control.
